Columns and labels:
[1] = Six month endometriosis study: side effects and bleeding; type: in vivo, pre-menopausal adult women; settings: for non-menstrual spotting and bleeding with excessive endometrial thickening, D&C performed: treatment phase
Method: Although this was a small study and no definitive conclusions can be made from the safety data, there was no single signal of safety observed.
A similar event was not seen at the 50 mg dose during the treatment phase. Greater than normal bleeding occurred in two patients in the 50 mg CDB-4124 group after treatment was stopped and a D&C was performed in one and the other successfully managed conservatively.

[2] = Six month endometriosis study: estrogen and biomarkers of bone resorption; type: in vivo, pre-menopausal adult women
Method: Thirty-nine pre-menopausal adult women diagnosed with endometriosis were the subject of a six month study of Proellex™ (CDB-4124) in the treatment of endometriosis. The study included three dose levels of CDB-4124 as well as a positive control arm. The positive control was LUCRIN, a GnRH agonist, commonly used for the treatment of endometriosis (also known as LUPRON. CDB-4124 was administered in a double blinded fashion as a daily oral capsule at dosages of 12.5 mg/day (n=2), 25 mg/day (n=3) and 50 mg/day (n=3). Another group (n=4) were injected with a slow release formulation of LUCRIN once per month as a positive control.

[3] = Measuring serum cortisol in rats; type: in vivo
[4] = system: pain associated with endometriosis; assay: Six month endometriosis study: pain diaries and symptom surveys; type: in vivo, pre-menopausal adult women; set-up: key to score for intensity of pain on a bad day: 0-10 scale; 0 = no pain, 10 = extreme pain
Method: Pain reduction also occurred more rapidly than with the active control, LUCRIN. The response of pain to treatment in this study was analyzed in two ways. Patients in the study maintained daily pain diaries to record the severity and frequency of pain. In addition, at each office visit, patients filled out endometriosis symptom surveys that included a questionnaire that evaluated intensity of pain on a bad day on a scale of 0-10 with 10 being the greatest intensity. […] There appeared to be a dose dependent effect on pain reduction. […] This decrease in duration of pain was statistically better (p=0.0012) than the 117.8 (74%; standard deviation 51.4 days) pain free days achieved with LUCRIN. […] Patients on CDB-4124 12.5 mg and 25 mg doses had 115.9 (66%; standard deviation 69.2 days) and 133.6 (75%; standard deviation 27.4 days) pain free days, respectively. […] The 25 mg and 12.5 mg doses of CDB-4124 were not statistically different from LUCRIN. […] The intensity of pain was asked by the question: “On a scale of 1-10, with 0 being no pain and 10 being extreme pain, how intense was your pain on a bad day?” The mean scores for intensity of pain at baseline were 6.3 for the CDB-4124 groups and 6.1 for the LUCRIN group. […] At month three all four active treatment groups had statistically significant reduction in pain compared with baseline, with the following scores: 3.7 (p=0.03) for 12.5 mg CDB-4124, 3.2 (p=0.03) for 25 mg CDB-4124, 1.6 (p=0.015) for 50 mg CDB-4124 and 1.5 (p=0.016) for LUCRIN. These dose related reductions continued until month six when the values for pain intensity were 2.0 (p=0.008), 2.8 (p=0.023), 0.6 (p=0.004) and 0.7 (p=0.016), respectively. Two months after stopping treatment pain returned and was of similar intensity in all four treatment groups.

endometrium = assay: Six month endometriosis study: endometrial thickness (ultrasound) / endometrial proliferation; type: in vivo, pre-menopausal adult women
Excerpt: Comparisons were made to both baseline and visit one ultrasound measurements of endometrial thickness. […]

[5] = estrogenic, androgenic, anti-estrogenic and anti-androgenic activities
Excerpt: These methods include receptor binding and in vivo bioassays such as anti-McGinty, anti-Clauberg, glucocorticoid, estrogenic, androgenic, anti-glucocorticoid (AG), anti-estrogen, and anti-androgen activities as well as post-coital and anti-ovulatory activities where in the leading compounds of the instant invention are used as a reference.

[6] = Measuring serum corticosterone in rats
[7] = Attardi et al., 2002; cited from earlier work

Compound: COCC(=O)[C@@]1(OC(C)=O)CC[C@H]2[C@@H]3CCC4=CC(=O)CCC4=C3[C@@H](c3ccc(N(C)C)cc3)C[C@@]21C [CDB-4124, 21-methoxy-17α-acetoxy-11β-(4 N,N-dimethylaminophenyl)-19-norpregna-4,9-diene-3,20-dione]
- non-menstrual spotting and bleeding with excessive endometrial thickening, D&C performed ([1]; 12.5 mg and 25 mg groups): two cases
- non-menstrual spotting and bleeding with excessive endometrial thickening, D&C performed ([1]; 50 mg dose): not seen
- greater than normal bleeding after treatment was stopped ([1]; 50 mg group): two patients
- estrogen concentration (mean) ([2]; all doses of CDB-4124): > 40 pg/mL
- biomarkers of bone resorption compared with baseline ([2]; month three (LUCRIN, p=0.023), three and six months (any dose arm of CDB-4124)): no significant changes in biomarkers of bone resorption
- serum cortisol versus control group ([3]; 10 mg/kg, 21 days of chronic dosing, FIG. 1): significantly higher levels of serum cortisol
- dose-dependent effect on serum cortisol ([3]; increasing doses, FIG. 2): increased cortisol
- days of pain over the first three months versus highest dose of CDB-4124 or LUCRIN ([4]; 25 mg and 12.5 mg daily oral): more days of pain
- relief from pain (intensity) by the first month ([4]; 25 mg and 50 mg groups): Statistically significant relief from pain
- days of pain at the end of the first month compared with baseline ([4]; 50 mg, p=0.031): statistically significant reduction in days of pain
- distress related to pain over the six month exposure ([4]; all doses, on average): reduced distress related to pain
- mean score for intensity of pain on a bad day ([4]; baseline, scale 0-10): 6.3
- score for intensity of pain on a bad day ([4]; month six, 12.5 mg): 2.0
- score for intensity of pain on a bad day ([4]; month six, 25 mg): 2.8
- score for intensity of pain on a bad day ([4]; month six, 50 mg): 0.6
- score for intensity of pain on a bad day ([4]; month three, 12.5 mg): 3.7
- score for intensity of pain on a bad day ([4]; month three, 25 mg): 3.2
- score for intensity of pain on a bad day ([4]; month three, 50 mg): 1.6
- women exhibiting thickened endometrium after three months (endometrium; 12.5 mg (n=4)): two women
- women exhibiting thickened endometrium after three months (endometrium; 25 mg (n=4)): One person
- women exhibiting thickened endometrium after three months (endometrium; 50 mg (n=3)): none of the women
- endometrial proliferation in adult females (endometrium; high dosage 50 mg/day): suppresses endometrial proliferation
- endometrial proliferation in adult females (endometrium; lower dosages 25 mg/day and 12.5 mg/day): does not suppress endometrial proliferation
- estrogenic, androgenic, anti-estrogenic, and anti-androgenic activities [5]: lack
- effect on the primary glucocorticoid of the rat (corticosterone) [6]: no strong effect
- differences in serum corticosterone between treatment groups ([6]; progesterone, CDB-4124 and RU-486 groups compared): No differences in serum corticosterone

Compound: CNc1ccc([C@H]2C[C@@]3(C)[C@@H](CC[C@]3(OC(C)=O)C(=O)COC)[C@@H]3CCC4=CC(=O)CCC4=C32)cc1 [CDB-4453, 21-methoxy-17α-acetoxy-11β-(4-N-methylaminophenyl)-19-norpregna-4,9-diene-3,20-dione]
- anti-glucocorticoid activity relative to parent CDB-4124 [7]: even lower anti-glucocorticoid activity than its parent

Reference: patent US9283234B2, “Compositions and methods for suppressing endometrial proliferation” (REPROS THERAPEUTICS INC., priority 2006, dated 2016)
